Source: ChEMBL document CHEMBL1201862, “PubChem BioAssay data set” (2004)
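Cultured in 96-well plates, cells were exposed to test compound for 48 hours across five concentrations. Here, GI50 denotes the concentration required for 50% inhibition of growth.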 Activity calls are given as the source filed them. No stated cut-off is given here; in the data, active = GI50 up to about 1.1 µM and inactive = higher.

What was measured:
Assay in all cases: NCI tumour cell line growth inhibition, 48 h
OVCAR-3 = system: OVCAR-3
RXF 393 = system: RXF 393
A498 = system: A498
SN12C = system: SN12C
HCT-15 = system: HCT-15
SK-MEL-5 = system: SK-MEL-5
NCI-H460 = system: NCI-H460
HOP-62 = system: HOP-62
SF-539 = system: SF-539
HCT-116 = system: HCT-116
DLD-1 = system: DLD-1
DMS-273 = system: DMS-273
SK-MEL-2 = system: SK-MEL-2
A549 = system: A549
HT-29 = system: HT-29
EKVX = system: EKVX
M14 = system: M14
KM12 = system: KM12
RPMI-8226 = system: RPMI-8226
NCI-H23 = system: NCI-H23
IGROV-1 = system: IGROV-1
TK-10 = system: TK-10
SK-MEL-28 = system: SK-MEL-28
SNB-78 = system: SNB-78
ACHN = system: ACHN
HOP-18 = system: HOP-18
LOX IMVI = system: LOX IMVI
OVCAR-8 = system: OVCAR-8
HL-60 = system: HL-60
UO-31 = system: UO-31
CCRF-CEM = system: CCRF-CEM
MOLT-4 = system: MOLT-4
UACC-62 = system: UACC-62
COLO 205 = system: COLO 205
UACC-257 = system: UACC-257
SW-620 = system: SW-620
KM-20L2 = system: KM-20L2
OVCAR-5 = system: OVCAR-5
786-0 = system: 786-0
HCC 2998 = system: HCC 2998
U-251 = system: U-251
SF-268 = system: SF-268
NCI-H522 = system: NCI-H522
SNB-19 = system: SNB-19
HOP-92 = system: HOP-92
OVCAR-4 = system: OVCAR-4
CAKI-1 = system: CAKI-1
M19-MEL = system: M19-MEL
LXFL 529 = system: LXFL 529
SF-295 = system: SF-295
SK-OV-3 = system: SK-OV-3
SNB-75 = system: SNB-75
DMS-114 = system: DMS-114
K562 = system: K562
Malme-3M = system: Malme-3M

O=C1c2cccc(NCCCNCCO)c2C(=O)c2cccc(NCCCNCCO)c21
GI50 (OVCAR-3): 2.53 µM (inactive)
GI50 (RXF 393): 2.95 µM (inactive)
GI50 (A498): 2.17 µM (inactive)
GI50 (SN12C): 1.26 µM (inactive)
GI50 (HCT-15): 7.31 µM
GI50 (SK-MEL-5): 1.78 µM (inactive)
GI50 (NCI-H460): 1.68 µM (inactive)
GI50 (HOP-62): 2.43 µM (inactive)
GI50 (SF-539): 1.86 µM (inactive)
GI50 (HCT-116): 1.56 µM (inactive)
GI50 (DLD-1): 3.13 µM (inactive)
GI50 (DMS-273): 2.02 µM (inactive)
GI50 (SK-MEL-2): 1.92 µM (inactive)
GI50 (A549): 1.99 µM (inactive)
GI50 (HT-29): 1.41 µM (inactive)
GI50 (EKVX): 2.32 µM (inactive)
GI50 (M14): 2.09 µM (inactive)
GI50 (KM12): 1.92 µM (inactive)
GI50 (RPMI-8226): 1.97 µM (inactive)
GI50 (NCI-H23): 2.99 µM (inactive)
GI50 (IGROV-1): 2.56 µM (inactive)
GI50 (TK-10): 3 µM (inactive)
GI50 (SK-MEL-28): 1.96 µM (inactive)
GI50 (SNB-78): 2.06 µM (inactive)
GI50 (ACHN): 1.59 µM (inactive)
GI50 (HOP-18): 2.67 µM (inactive)
GI50 (LOX IMVI): 2.1 µM (inactive)
GI50 (OVCAR-8): 1.86 µM (inactive)
GI50 (HL-60): 1.36 µM (inactive)
GI50 (UO-31): 9.68 µM (inactive)
GI50 (CCRF-CEM): 1.34 µM (inactive)
GI50 (MOLT-4): 1.35 µM (inactive)
GI50 (UACC-62): 1.76 µM (inactive)
GI50 (COLO 205): 1.36 µM (inactive)
GI50 (UACC-257): 3.56 µM (inactive)
GI50 (SW-620): 1.46 µM (inactive)
GI50 (KM-20L2): 2.34 µM (inactive)
GI50 (OVCAR-5): 2.65 µM (inactive)
GI50 (786-0): 1.96 µM (inactive)
GI50 (HCC 2998): 1.08 µM (active)

CCN(CC)C(=O)c1ccc(C)c(/N=N/N(C)C)c1
GI50 (OVCAR-3): > 100 µM (inactive)
GI50 (SN12C): > 100 µM (inactive)
GI50 (HCT-15): > 100 µM
GI50 (U-251): > 100 µM (inactive)
GI50 (SK-MEL-5): > 100 µM (inactive)
GI50 (NCI-H460): > 100 µM (inactive)
GI50 (HOP-62): > 100 µM (inactive)
GI50 (SF-539): > 100 µM (inactive)
GI50 (HCT-116): > 100 µM (inactive)
GI50 (DLD-1): > 100 µM (inactive)
GI50 (DMS-273): > 100 µM (inactive)
GI50 (SK-MEL-2): > 100 µM (inactive)
GI50 (A549): > 100 µM (inactive)
GI50 (HT-29): > 100 µM (inactive)
GI50 (EKVX): > 100 µM (inactive)
GI50 (M14): > 100 µM (inactive)
GI50 (KM12): > 100 µM (inactive)
GI50 (NCI-H23): > 100 µM (inactive)
GI50 (IGROV-1): > 100 µM (inactive)
GI50 (SF-268): > 100 µM (inactive)
GI50 (TK-10): > 100 µM (inactive)
GI50 (NCI-H522): 44 µM (inactive)
GI50 (SK-MEL-28): > 100 µM (inactive)
GI50 (ACHN): > 100 µM (inactive)
GI50 (SNB-19): > 100 µM (inactive)
GI50 (HOP-92): > 100 µM (inactive)
GI50 (OVCAR-4): > 100 µM (inactive)
GI50 (CAKI-1): > 100 µM (inactive)
GI50 (LOX IMVI): > 100 µM (inactive)
GI50 (OVCAR-8): > 100 µM (inactive)
GI50 (M19-MEL): > 100 µM (inactive)
GI50 (LXFL 529): > 100 µM (inactive)
GI50 (UO-31): > 100 µM (inactive)
GI50 (SF-295): > 100 µM (inactive)
GI50 (UACC-62): > 100 µM (inactive)
GI50 (UACC-257): > 100 µM (inactive)
GI50 (SW-620): > 100 µM (inactive)
GI50 (KM-20L2): > 10 µM (inactive)
GI50 (786-0): > 100 µM (inactive)
GI50 (HCC 2998): > 100 µM (inactive)

CCOP(=O)(OCC)/C(C#N)=C/c1cc(O)ccc1O
GI50 (OVCAR-3): > 100 µM (inactive)
GI50 (RXF 393): > 100 µM (inactive)
GI50 (A498): > 100 µM (inactive)
GI50 (U-251): > 100 µM (inactive)
GI50 (NCI-H460): > 100 µM (inactive)
GI50 (HOP-62): > 100 µM (inactive)
GI50 (SF-539): > 100 µM (inactive)
GI50 (HCT-116): > 100 µM (inactive)
GI50 (SK-OV-3): > 100 µM (inactive)
GI50 (SNB-75): 79.3 µM (inactive)
GI50 (SK-MEL-2): > 100 µM (inactive)
GI50 (HT-29): > 100 µM (inactive)
GI50 (M14): > 100 µM (inactive)
GI50 (KM12): > 100 µM (inactive)
GI50 (RPMI-8226): > 100 µM (inactive)
GI50 (NCI-H23): > 100 µM (inactive)
GI50 (DMS-114): > 100 µM (inactive)
GI50 (IGROV-1): > 100 µM (inactive)
GI50 (K562): > 100 µM (inactive)
GI50 (SF-268): > 100 µM (inactive)
GI50 (SK-MEL-28): > 100 µM (inactive)
GI50 (SNB-78): > 100 µM (inactive)
GI50 (ACHN): > 100 µM (inactive)
GI50 (SNB-19): > 100 µM (inactive)
GI50 (HOP-92): > 100 µM (inactive)
GI50 (OVCAR-4): > 100 µM (inactive)
GI50 (M19-MEL): > 100 µM (inactive)
GI50 (LXFL 529): > 100 µM (inactive)
GI50 (Malme-3M): > 100 µM (inactive)
GI50 (UO-31): > 100 µM (inactive)
GI50 (SF-295): > 100 µM (inactive)
GI50 (UACC-62): > 100 µM (inactive)
GI50 (COLO 205): > 100 µM (inactive)
GI50 (UACC-257): > 100 µM (inactive)
GI50 (KM-20L2): > 100 µM (inactive)
GI50 (OVCAR-5): > 100 µM (inactive)
